Where two headings read alike, the source gives them in different places.
What was measured:
CYP 1A2 [1] = settings: Table A, Source 1; ref Bayer HealthCare databases for CYP inhibition (eTOX); cited from earlier work
human CYP 1A2 [2] = biological target: T1, human CYP 1A2 (Homo sapiens, UniProt P05177); assay: in-house CYP 1A2 inhibition assay with 7-methoxyresorufin as substrate (resorufin fluorescence); settings: for ΔΔG bind: difference in ΔG bind between literature and in-house determined values; for ΔG bind (inhouse): from in-house IC50 via Cheng-Prusoff and RTln(Ki)
T1 sequence (P05177 1-516): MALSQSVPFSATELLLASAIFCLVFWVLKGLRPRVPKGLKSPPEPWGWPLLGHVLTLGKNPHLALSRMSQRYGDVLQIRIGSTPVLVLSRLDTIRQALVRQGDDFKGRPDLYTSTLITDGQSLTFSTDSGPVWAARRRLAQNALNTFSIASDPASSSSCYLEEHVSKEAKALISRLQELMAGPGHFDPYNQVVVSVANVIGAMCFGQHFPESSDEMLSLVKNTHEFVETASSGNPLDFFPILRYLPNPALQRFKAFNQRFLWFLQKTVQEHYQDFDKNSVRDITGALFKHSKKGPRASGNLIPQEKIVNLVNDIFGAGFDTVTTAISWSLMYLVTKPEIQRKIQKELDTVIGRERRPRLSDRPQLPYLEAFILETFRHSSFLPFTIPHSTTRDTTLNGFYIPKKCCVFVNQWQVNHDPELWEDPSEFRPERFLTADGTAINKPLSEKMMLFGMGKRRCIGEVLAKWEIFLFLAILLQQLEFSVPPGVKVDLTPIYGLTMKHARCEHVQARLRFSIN

recombinant CYP 1A2 [3] = tested on: recombinant CYP 1A2
recombinant CYP 1A2 [4] = settings: cited from earlier work
human CYP 1A2 [5] = biological target: T1, human CYP 1A2
recombinant CYP 1A2 [6] = settings: for ΔGbind^Obs: from literature IC50, Source 3
CYP 1A2 [7] = settings: literature; cited from earlier work
[8] = read-out: IC 50 (lit), Source 3, recombinant CYP 1A2, 7-ethoxyresorufin O-dealkylation
[9] = Table A, Source 3, ref Korhonen et al., J. Med. Chem. 2005

## N[C@@H]1C[C@H]1c1ccccc1 (racemic) [Compound 15, Tranylcypromine]
CYP 1A2 [1]
  IC50: 10.4 µM

## Oc1cccc2ccccc12 [Compound 9, 1-naphthol]
Human CYP 1A2 [2]
  IC50: 2 ± 0.7 µM
  ΔΔG bind: 0.287 kcal/mol
  ΔG bind (inhouse): -8.25 ± 0.22 kcal/mol
Recombinant CYP 1A2 [3]; human
  ΔG bind (lit): -7.96 ± 0.14 kcal/mol
  ΔGbind^Obs: -7.96 kcal/mol
Recombinant CYP 1A2 [4]; [8]
  IC50: 3.2 ± 0.8 µM
Human CYP 1A2 [5]
  Residual (ΔGbind^Obs–ΔG bind ^Calc), error in prediction: -2.77 kcal/mol

## COc1ccc(C=O)cc1 [Compound 11, p-methoxybenzaldehyde]
Human CYP 1A2 [2]
  ΔΔG bind: -0.239 kcal/mol
  ΔG bind (inhouse): -5.07 ± 0.048 kcal/mol
Human CYP 1A2 [2]; read-out: IC 50 (inhouse)
  IC50: 410 ± 32 µM
Recombinant CYP 1A2 [3]
  ΔG bind (lit): -5.31 ± 0.19 kcal/mol
  ΔGbind^Obs: -5.31 kcal/mol
Recombinant CYP 1A2 [4]; [8]
  IC50: 270 ± 85 µM
Human CYP 1A2 [5]
  Residual (ΔGbind^Obs–ΔG bind ^Calc), error in prediction: -0.43 kcal/mol

## Cc1ccc(CCN)cc1 [Compound 12, p-tolylethylamine]
Recombinant CYP 1A2 [6]; from literature IC50, Source 3 (Ref. 25)
  ΔG bind (lit): -7.07 ± 0.12 kcal/mol
Recombinant CYP 1A2 [6]; test set
  ΔGbind^Obs: -7.07 kcal/mol
Human CYP 1A2 [2]
  ΔΔG bind: -1.27 kcal/mol
  ΔG bind (inhouse): -5.81 ± 0.17 kcal/mol
Human CYP 1A2 [2]; read-out: IC 50 (inhouse), 7-methoxyresorufin at Km 2.5 μM, triplicate
  IC50: 120 ± 33 µM
Recombinant CYP 1A2 [4]; [8]
  IC50: 14 ± 2.5 µM
Human CYP 1A2 [5]; test set
  Residual (ΔGbind^Obs–ΔG bind ^Calc), error in prediction: -1.53 kcal/mol

## Fc1ccc([C@@H]2CCNC[C@H]2COc2ccc3c(c2)OCO3)cc1 [Compound 18, Paroxetine]
CYP 1A2 [1]
  IC50: 23.5 µM

## COC(=O)[C@H](c1ccccc1Cl)N1CCc2sccc2C1 [Compound 19, Clopidogrel]
CYP 1A2 [1]
  IC50: 24.2 µM
CYP 1A2 [7]
  Reported inhibition mechanism: Substrate^69

## C#C[C@]1(O)CC[C@H]2[C@@H]3CCC4=Cc5oncc5C[C@]4(C)[C@H]3CC[C@@]21C [Compound 21, Danazol]
CYP 1A2 [1]
  IC50: 45.3 µM

## Clc1ccccc1C(c1ccccc1)(c1ccccc1)n1ccnc1 [Compound 22, Clotrimazole]
CYP 1A2 [1]
  IC50: 5.83 µM

## c1ccc2ccccc2c1 [Compound 27, Naphthalene]
Recombinant CYP 1A2 [6]; training set
  ΔGbind^Obs: -4.73 kcal/mol
Recombinant CYP 1A2 [4]; [9]
  IC50: 700 µM
Human CYP 1A2 [5]
  Residual (ΔGbind^Obs—ΔGbind^Calc): -0.55 kcal/mol

## Cc1cccc2ccccc12 [Compound 28, 1-Methylnaphthalene]
Recombinant CYP 1A2 [3]; human
  ΔGbind^Obs: -5.86 kcal/mol
Recombinant CYP 1A2 [4]; [9]
  IC50: 110 µM
Human CYP 1A2 [5]; training set
  Residual (ΔGbind^Obs—ΔGbind^Calc): -0.502 kcal/mol

## Clc1cccc2ccccc12 [Compound 29, 1-Chloronaphthalene]
Recombinant CYP 1A2 [3]; human
  ΔGbind^Obs: -6.31 kcal/mol
Recombinant CYP 1A2 [4]; [9]
  IC50: 50 µM
Human CYP 1A2 [5]
  Residual (ΔGbind^Obs–ΔG bind ^Calc), error in prediction: -0.932 kcal/mol

## Cc1ccc2ccccc2c1 [Compound 30, 2-Methylnaphthalene]
Recombinant CYP 1A2 [3]; human
  ΔGbind^Obs: -5.78 kcal/mol
Recombinant CYP 1A2 [4]
  IC50: 120 µM
Human CYP 1A2 [5]
  Residual (ΔGbind^Obs—ΔGbind^Calc): -0.789 kcal/mol

## CCc1ccc2ccccc2c1 [Compound 31, 2-Ethylnaphthalene]
Recombinant CYP 1A2 [3]; human
  ΔGbind^Obs: -6.91 kcal/mol
Recombinant CYP 1A2 [4]; [9]
  IC50: 19 µM
Human CYP 1A2 [5]; test set
  Residual (ΔGbind^Obs–ΔG bind ^Calc), error in prediction: -0.789 kcal/mol

## Fc1ccc2ccccc2c1 [Compound 32, 2-Fluoronaphthalene]
Recombinant CYP 1A2 [6]; training set
  ΔGbind^Obs: -6.33 kcal/mol
Recombinant CYP 1A2 [4]; [9]
  IC50: 49 µM
Human CYP 1A2 [5]; training set
  Residual (ΔGbind^Obs—ΔGbind^Calc): -1.34 kcal/mol

## Cc1ccc(C)c2ccccc12 [Compound 36, 1,4-Dimethylnaphthalene]
Recombinant CYP 1A2 [3]; human
  ΔGbind^Obs: -7.89 kcal/mol
Recombinant CYP 1A2 [4]; [9]
  IC50: 3.6 µM
Human CYP 1A2 [5]; training set
  Residual (ΔGbind^Obs—ΔGbind^Calc): -1.77 kcal/mol

## Cc1cccc2c(C)cccc12 [Compound 39, 1,5-Dimethylnaphthalene]
Recombinant CYP 1A2 [3]; human
  ΔGbind^Obs: -6.43 kcal/mol
Recombinant CYP 1A2 [4]
  IC50: 42 µM
Human CYP 1A2 [5]
  Residual (ΔGbind^Obs–ΔG bind ^Calc), error in prediction: -0.478 kcal/mol

## Cc1ccc2c(C)cccc2c1 [Compound 40, 1,6-Dimethylnaphthalene]
Recombinant CYP 1A2 [3]; human
  ΔGbind^Obs: -6.74 kcal/mol
Recombinant CYP 1A2 [4]; [9]
  IC50: 25 µM
Human CYP 1A2 [5]; test set
  Residual (ΔGbind^Obs–ΔG bind ^Calc), error in prediction: -0.454 kcal/mol

## Cc1ccc2cccc(C)c2c1 [Compound 41, 1,7-Dimethylnaphthalene]
Recombinant CYP 1A2 [3]; human
  ΔGbind^Obs: -7.46 kcal/mol
Recombinant CYP 1A2 [4]; [9]
  IC50: 7.5 µM
Human CYP 1A2 [5]; test set
  Residual (ΔGbind^Obs–ΔG bind ^Calc), error in prediction: -1.46 kcal/mol

## Cc1ccc2cc(C)ccc2c1 [Compound 42, 2,6-Dimethylnaphthalene]
Recombinant CYP 1A2 [3]; human
  ΔGbind^Obs: -6.29 kcal/mol
Recombinant CYP 1A2 [4]
  IC50: 52 µM
Human CYP 1A2 [5]
  Residual (ΔGbind^Obs—ΔGbind^Calc): -0.454 kcal/mol

## Cc1ccc2ccc(C)cc2c1 [Compound 43, 2,7-Dimethylnaphthalene]
Recombinant CYP 1A2 [3]; human
  ΔGbind^Obs: -6.17 kcal/mol
Recombinant CYP 1A2 [4]; [9]
  IC50: 65 µM
Human CYP 1A2 [5]; test set
  Residual (ΔGbind^Obs–ΔG bind ^Calc), error in prediction: 0 kcal/mol

## Cc1ccc2ccccc2n1 [Compound 44, Quinaldine]
Recombinant CYP 1A2 [4]; [9]
  IC50: 40 µM

## Cc1cnc2ccccc2c1 [Compound 45, 3-Methylquinoline]
Recombinant CYP 1A2 [4]; [9]
  IC50: 13 µM

## Cc1cc(C)c2ccccc2n1 [Compound 46, 2-4-Dimethylquinoline]
Recombinant CYP 1A2 [4]
  IC50: 2.4 µM

## Cc1cc2ccccc2cn1 [Compound 49, 3-Methylisoquinoline]
Recombinant CYP 1A2 [4]; [9]
  IC50: 21 µM

## CC1CCC(=O)O1 (stereo not drawn) [Compound 51, γ-Valerolactone]
Recombinant CYP 1A2 [3]
  ΔGbind^Obs: -2.92 kcal/mol
Recombinant CYP 1A2 [4]; [9]
  IC50: 15000 µM
Human CYP 1A2 [5]
  Residual (ΔGbind^Obs—ΔGbind^Calc): 0.86 kcal/mol

## CCC1CCC(=O)O1 (stereo not drawn) [Compound 52, γ-Caprolactone]
Recombinant CYP 1A2 [3]; human
  ΔGbind^Obs: -3.15 kcal/mol
Recombinant CYP 1A2 [4]
  IC50: 9900 µM
Human CYP 1A2 [5]
  Residual (ΔGbind^Obs—ΔGbind^Calc): 0.956 kcal/mol

## O=C1Cc2ccccc2O1 [Compound 60, 2-Coumarone]
Recombinant CYP 1A2 [3]
  ΔGbind^Obs: -5.33 kcal/mol
Recombinant CYP 1A2 [4]; [9]
  IC50: 260 µM
Human CYP 1A2 [5]; training set
  Residual (ΔGbind^Obs—ΔGbind^Calc): -0.263 kcal/mol

## c1ccc2c(c1)CCO2 [Compound 62, 2,3-Dihydrobenzofuran]
Recombinant CYP 1A2 [6]; training set
  ΔGbind^Obs: -4.42 kcal/mol
Recombinant CYP 1A2 [4]; [9]
  IC50: 1200 µM
Human CYP 1A2 [5]; training set
  Residual (ΔGbind^Obs—ΔGbind^Calc): -0.096 kcal/mol

## c1ccc2c(c1)CCC2 [Compound 63, Indan]
Recombinant CYP 1A2 [3]; human
  ΔGbind^Obs: -4.88 kcal/mol
Recombinant CYP 1A2 [4]
  IC50: 550 µM

## O=c1[nH]c2ccccc2o1 [Compound 64, 2-Benzoxazolinone]
Recombinant CYP 1A2 [3]; human
  ΔGbind^Obs: -5.11 kcal/mol
Recombinant CYP 1A2 [4]; [9]
  IC50: 370 µM
Human CYP 1A2 [5]; training set
  Residual (ΔGbind^Obs—ΔGbind^Calc): 0.19 kcal/mol

## c1ccc(-c2ccccc2)cc1 [Compound 65, Biphenyl]
Recombinant CYP 1A2 [3]; human
  ΔGbind^Obs: -5.62 kcal/mol
Recombinant CYP 1A2 [4]
  IC50: 160 µM
Human CYP 1A2 [5]
  Residual (ΔGbind^Obs—ΔGbind^Calc): -0.12 kcal/mol

## Clc1ccccc1-c1ccccc1 [Compound 66, 2-Chlorobiphenyl]
Recombinant CYP 1A2 [3]; human
  ΔGbind^Obs: -5.4 kcal/mol
Recombinant CYP 1A2 [4]; [9]
  IC50: 230 µM
Human CYP 1A2 [5]; test set
  Residual (ΔGbind^Obs–ΔG bind ^Calc), error in prediction: 0.669 kcal/mol

## Clc1ccc(-c2ccccc2)cc1 [Compound 67, 4-Chlorobiphenyl]
Recombinant CYP 1A2 [3]; human
  ΔGbind^Obs: -6.33 kcal/mol
Recombinant CYP 1A2 [4]; [9]
  IC50: 49 µM
Human CYP 1A2 [5]
  Residual (ΔGbind^Obs—ΔGbind^Calc): 0.024 kcal/mol

## CCCCC1CCCCC1 [Compound 68, Butylcyclohexane]
Recombinant CYP 1A2 [6]; training set
  ΔGbind^Obs: -6.26 kcal/mol
Recombinant CYP 1A2 [4]; [9]
  IC50: 55 µM
Human CYP 1A2 [5]; training set
  Residual (ΔGbind^Obs—ΔGbind^Calc): 0.526 kcal/mol

## CCCCc1ccccc1 [Compound 69, Butylbenzene]
Recombinant CYP 1A2 [3]; human
  ΔGbind^Obs: -3.75 kcal/mol
Recombinant CYP 1A2 [4]; [9]
  IC50: 3700 µM
Human CYP 1A2 [5]; test set
  Residual (ΔGbind^Obs–ΔG bind ^Calc), error in prediction: 1.43 kcal/mol

## O=C1CCC(c2ccccc2)O1 (stereo not drawn) [Compound 70, γ-Phenyl-γ-butyrolactone]
Recombinant CYP 1A2 [3]
  ΔGbind^Obs: -4.04 kcal/mol
Recombinant CYP 1A2 [4]; [9]
  IC50: 2300 µM
Human CYP 1A2 [5]; training set
  Residual (ΔGbind^Obs—ΔGbind^Calc): 1.36 kcal/mol

## COC1=CC(=O)OC1 [Compound 71, 4-Methoxyfuran-2-(5H)-one]
Recombinant CYP 1A2 [6]; test set
  ΔGbind^Obs: -2.32 kcal/mol
Recombinant CYP 1A2 [4]
  IC50: 40000 µM
Human CYP 1A2 [5]; test set
  Residual (ΔGbind^Obs–ΔG bind ^Calc), error in prediction: 1.34 kcal/mol

## Cc1cc(C)oc(=O)c1 [Compound 72, 4,6-Dimethyl-α-pyron]
Recombinant CYP 1A2 [6]; training set
  ΔGbind^Obs: -3.63 kcal/mol
Recombinant CYP 1A2 [4]
  IC50: 4500 µM
Human CYP 1A2 [5]
  Residual (ΔGbind^Obs—ΔGbind^Calc): 1.05 kcal/mol

## CN1C(=O)CC[C@H]1c1cccnc1 [Compound 73, Cotinine]
Recombinant CYP 1A2 [6]; training set
  ΔGbind^Obs: -3.51 kcal/mol
Recombinant CYP 1A2 [4]; [9]
  IC50: 5400 µM
Human CYP 1A2 [5]; training set
  Residual (ΔGbind^Obs—ΔGbind^Calc): 1.84 kcal/mol
